Each block holds one molecule with its values, some of them ahead of it. Non-standard residues stand in square brackets, D forms with d. Residues, ends and D or L forms follow the SMILES beside them.
How the values were obtained:
[1] = system: Caco-2 cells; assay: Cell viability by DAPI labeling in flow cytometry, Caco-2; settings: CPZ 20 μM, NYS 50 μM, MBCD 5 mM, compared to non-treated cells (80 ± 10%)
[2] = system: Caco-2 cells; assay: Cellular uptake of Tamra-labelled peptides by flow cytometry, Caco-2; format: cell-based, human; settings: for decrease in transfection efficiency with 10% serum / decrease in transfection efficiency with 20% serum: Tamra-peptides 5 µM, 3 h; for decrease in transfection efficiency with 10% serum: OptiMEM + 10% (v/v) FBS vs 0%; for decrease in transfection efficiency with 20% serum: OptiMEM + 20% (v/v) FBS vs 0%
Experimental: (§1) Next, 48 h post-seeding, cells were rinsed twice with D-PBS and then incubated with 500 μL of Tamra-CPP-iCAL36 solution at the indicated conditions.
(§2) Standard transfection and kinetic measurements.
(§3) Transfection in the presence of serum.

[3] = system: Calu-3 cells; assay: Cellular uptake of Tamra-labelled peptides by flow cytometry, Calu-3; format: cell-based, human
Experimental: as §1, §2, §3

[4] = molecular target: T1, TatRI-iCAL36 (N-terminal D-amino acid retro-inverso Tat (qpprrrqrrkkrg)); assay: fluorescence polarization
T1 chain: ANSRWPTSII

Molecule: C[C@@H]1[C@H](O)[C@@H](C)/C=C/C=C/CC/C=C/C=C/C=C/C=C/C(O[C@H]2O[C@H](C)[C@@H](O)[C@H](N)[C@@H]2O)CC2O[C@](O)(CC(O)C(O)CCC(O)CC(O)CC(O)CC(=O)O[C@H]1C)CC(O)C2C(=O)O (some centres unmarked) [NYS, nystatin]
- loss of viability (slight cytotoxicity) by endocytosis inhibitors [1]: 5–20%

Molecule: GALFLGWLGAAGSTMGAWSQPKKKRKV-ANSRWPTSII [MPG-iCAL36, MPG cell-penetrating peptide conjugated to iCAL36]
- cellular internalization (Tamra fluorescence), comparison between peptides ([3]; Calu-3, Tamra-labelled peptides 1 µM or 5 µM in OptiMEM, […], 37 °C, trypsinization, flow cytometry, mean ± SD, n = 4): superior to Tat-iCAL36 and its analogs
- decrease in transfection efficiency with 10% serum ([3]; Calu-3, Tamra-peptides 5 µM, 3 h, OptiMEM + 10% (v/v) FBS vs 0%, 37 °C, flow cytometry, n = 4): ~ 20%
- decrease in transfection efficiency with 20% serum ([3]; Calu-3, Tamra-peptides 5 µM, 3 h, OptiMEM + 20% (v/v) FBS vs 0%, 37 °C, flow cytometry, n = 4): ~ 30%
- cellular internalization (Tamra fluorescence), comparison between peptides ([2]; Tamra-labelled peptides 1 µM or 5 µM in OptiMEM, […], 37 °C, trypsinization, mean ± SD, n = 4): superior to Tat-iCAL36 and its analogs
- decrease in transfection efficiency with 10% serum ([2]; 37 °C, n = 4): ~ 30%
- decrease in transfection efficiency with 20% serum ([2]; 37 °C, n = 4): ~ 50%

Molecule: GRKKRRQRRRPPQ-ANSRWPTSII (GRKKRRQRRRPPQANSRWPTSII) [Tat-iCAL36, Tat cell-penetrating peptide conjugated to the N-terminus of iCAL36]
- increase in signal intensity (internalization) with longer incubation time (4.5 h) [3]: ~ 5.7 fold

Next, values leading:

- intracellular fluorescence without vs with chloroquine, peptide at 1 µM ([2]; Tamra-TatRI-iCAL36 1 µM, CQ 100 µM, n = 4, one-way ANOVA): no statistical difference
- decrease in transfection efficiency with 10% serum ([2]; 37 °C, n = 4): no significant difference
- decrease in transfection efficiency with 20% serum ([2]; 37 °C, n = 4): 18%
- increase in signal intensity (internalization) with longer incubation time (4.5 h) ([2]; Tamra-peptides in OptiMEM, 4.5 h vs […], 37 °C, n = 3 (Figure S2A)): ~ 3 fold
Molecule: CC[C@H](C)[C@H](NC(=O)[C@@H](NC(=O)[C@H](CO)NC(=O)[C@@H](NC(=O)[C@@H]1CCCN1C(=O)[C@H](Cc1c[nH]c2ccccc12)NC(=O)[C@H](CCCNC(=N)N)NC(=O)[C@H](CO)NC(=O)[C@H](CC(N)=O)NC(=O)[C@H](C)NC(=O)CNC(=O)[C@@H](CCCNC(=N)N)NC(=O)[C@@H](CCCCN)NC(=O)[C@@H](CCCCN)NC(=O)[C@@H](CCCNC(=N)N)NC(=O)[C@@H](CCCNC(=N)N)NC(=O)[C@@H](CCC(N)=O)NC(=O)[C@@H](CCCNC(=N)N)NC(=O)[C@@H](CCCNC(=N)N)NC(=O)[C@@H](CCCNC(=N)N)NC(=O)[C@H]1CCCN1C(=O)[C@H]1CCCN1C(=O)[C@H](N)CCC(N)=O)[C@@H](C)O)[C@@H](C)CC)C(=O)O [TatRI-iCAL36] (H-[dQ][dP][dP][dR][dR][dR][dQ][dR][dR][dK][dK][dR]GANSRWPTSII-OH)

- Ki [4]: > 5 mM
B1: NHERF2 PDZ2 (N2P2) PDZ2 (protein)
chain: LRPRLCHLRKGPQGYGFNLHSDKSRPGQYIRSVDPGSPAARSGLRAQDRLIEVNGQNVEGLRHAEVVASIKAREDEARLLVVDPETD

- Ki [4]: > 5 mM
B2: NHERF2 PDZ1 (N2P1) PDZ1 (protein)
chain: RPRLCRLVRGEQGYGFHLHGEKGRRGQFIRRVEPGSPAEAAALRAGDRLVEVNGVNVEGETHHQVVQRIKAVEGQTRLLVVDQETD

Source: article PMC9032934 (Pharmaceutics, 2022)
